Results taken from the NIST ThermoML archive (doi:10.1016/j.fluid.2018.10.006).
Where “and” joins values, the source holds several entries; their conditions need not be identical. Identical values can stand only once.

Settings: Fluid (supercritical or subcritical phases), Coaxial cylinder method

CCCCCC [hexane]
thermal conductivity
Settings	508.17 K	508.92 K
900 kPa	–	0.03769 W/m/K
1100 kPa	–	0.03855 W/m/K
1234 kPa	–	0.03889 W/m/K
1401 kPa	–	0.03933 W/m/K
1510 kPa	–	0.03959 W/m/K
1603 kPa	–	0.03996 W/m/K
1710 kPa	–	0.04032 W/m/K
1806 kPa	–	0.0407 W/m/K
1908 kPa	–	0.04118 W/m/K
2006 kPa	–	0.04167 W/m/K
2111 kPa	–	0.04248 W/m/K
2210 kPa	–	0.043 W/m/K
2300 kPa	–	0.04353 W/m/K
2409 kPa	–	0.04463 W/m/K
2509 kPa	–	0.04579 W/m/K
2600 kPa	–	0.04701 W/m/K
2650 kPa	–	0.04777 W/m/K
2726 kPa	–	0.0491 W/m/K
2744 kPa	–	0.04937 W/m/K
2752 kPa	–	0.04965 W/m/K
2763 kPa	–	0.04993 W/m/K
2847 kPa	–	0.05261 W/m/K
2898 kPa	–	0.05429 W/m/K
2902 kPa	–	0.05464 W/m/K
2927 kPa	–	0.05568 W/m/K
2949 kPa	0.0646 W/m/K	–
2953 kPa	0.06509 W/m/K	–
2955 kPa	–	0.05752 W/m/K
2956 kPa	0.06509 W/m/K	–
2963 kPa	0.06603 W/m/K	–
2966 kPa	0.06628 W/m/K	–
2968 kPa	–	0.05888 W/m/K
2970 kPa	0.06681 W/m/K	–
2974 kPa	0.06734 W/m/K	–
2975 kPa	–	0.05948 W/m/K
2979 kPa	0.06826 W/m/K	–
2982 kPa	0.0687 W/m/K	–
2985 kPa	–	0.06031 W/m/K
2988 kPa	–	0.06094 W/m/K
2990 kPa	0.07041 W/m/K	–
2991 kPa	0.0707 W/m/K	–
2992 kPa	–	0.06115 W/m/K
2995 kPa	0.07129 W/m/K	–
2998 kPa	0.07219 W/m/K	–
2999 kPa	–	0.06202 W/m/K
3002 kPa	0.07324 W/m/K	–
3004 kPa	–	0.06246 W/m/K
3007 kPa	0.07436 W/m/K	–
3009 kPa	0.07488 W/m/K	–
3011 kPa	–	0.06336 W/m/K
3013 kPa	0.0758 W/m/K	–
3015 kPa	0.07648 W/m/K	0.06429 W/m/K
3017 kPa	0.07703 W/m/K	–
3019 kPa	–	0.06477 W/m/K
3021 kPa	0.07822 W/m/K	–
3022 kPa	0.07848 W/m/K	–
3024 kPa	0.0792 W/m/K	–
3025 kPa	–	0.06574 W/m/K
3026 kPa	0.07994 W/m/K	–
3028 kPa	–	0.06624 W/m/K
3029 kPa	0.08069 W/m/K	–
3031 kPa	0.08185 W/m/K	–
3033 kPa	0.08287 W/m/K	0.06751 W/m/K
3034 kPa	0.08344 W/m/K	–
3035 kPa	–	0.06804 W/m/K
3036 kPa	0.08467 W/m/K	–
3037 kPa	0.08467 W/m/K	–
3038 kPa	0.08604 W/m/K	–
3039 kPa	0.08566 W/m/K	0.06857 W/m/K
3040 kPa	0.08735 W/m/K	–
3041 kPa	0.08647 W/m/K and 0.08824 W/m/K	–
3042 kPa	0.09103 W/m/K	0.06938 W/m/K
3043 kPa	0.09201 W/m/K	–
3044 kPa	–	0.06994 W/m/K
3045 kPa	0.09401 W/m/K	–
3046 kPa	0.09504 W/m/K	–
3047 kPa	0.0961 W/m/K	–
3048 kPa	0.09828 W/m/K	0.07107 W/m/K
3049 kPa	0.09941 W/m/K	–
3050 kPa	0.1017 W/m/K	0.0715 W/m/K
3051 kPa	0.1048 W/m/K	–
3052 kPa	0.1081 W/m/K	0.07223 W/m/K
3053 kPa	0.1119 W/m/K	–
3054 kPa	0.1168 W/m/K	–
3055 kPa	0.1226 W/m/K	0.07344 W/m/K
3056 kPa	0.1319 W/m/K	0.07375 W/m/K
3057 kPa	0.1487 W/m/K	–
3058 kPa	0.1625 W/m/K	–
3059 kPa	0.1438 W/m/K	0.07469 W/m/K
3060 kPa	0.1319 W/m/K	0.07532 W/m/K
3061 kPa	0.1231 W/m/K	–
3062 kPa	0.1168 W/m/K	–
3063 kPa	0.1123 W/m/K	0.0763 W/m/K
3064 kPa	0.1088 W/m/K	–
3065 kPa	0.106 W/m/K	0.07747 W/m/K
3066 kPa	0.1039 W/m/K	–
3067 kPa	0.1024 W/m/K	0.07868 W/m/K
3068 kPa	0.1006 W/m/K	0.07903 W/m/K
3069 kPa	0.09945 W/m/K	0.0801 W/m/K
3070 kPa	0.09832 W/m/K	0.08047 W/m/K
3071 kPa	0.09743 W/m/K	0.08084 W/m/K
3073 kPa	0.09613 W/m/K	0.08254 W/m/K
3074 kPa	0.09508 W/m/K	0.08353 W/m/K
3075 kPa	0.09456 W/m/K	0.08412 W/m/K
3076 kPa	0.09404 W/m/K	0.08532 W/m/K
3077 kPa	0.09323 W/m/K	0.08593 W/m/K
3078 kPa	0.09287 W/m/K	0.08697 W/m/K
3079 kPa	0.09237 W/m/K	0.08803 W/m/K
3080 kPa	0.09171 W/m/K	0.08934 W/m/K
3081 kPa	0.09127 W/m/K	0.09069 W/m/K
3082 kPa	0.09079 W/m/K	0.09234 W/m/K
3083 kPa	0.09032 W/m/K	0.09384 W/m/K
3084 kPa	0.08985 W/m/K	0.09568 W/m/K
3085 kPa	0.08955 W/m/K	0.0977 W/m/K
3086 kPa	0.0889 W/m/K	0.1001 W/m/K
3087 kPa	0.08845 W/m/K	0.103 W/m/K
3088 kPa	0.088 W/m/K	–
3089 kPa	0.08755 W/m/K	–
3090 kPa	0.08755 W/m/K	–
3091 kPa	0.08711 W/m/K	–
3092 kPa	0.08667 W/m/K	–
3094 kPa	0.08581 W/m/K	–
3095 kPa	0.08539 W/m/K	–
3100 kPa	0.08334 W/m/K	–
3105 kPa	0.08267 W/m/K	–
3108 kPa	0.08217 W/m/K	–
3115 kPa	0.08124 W/m/K	–
3120 kPa	0.08025 W/m/K	–
3125 kPa	0.08032 W/m/K	–
3130 kPa	0.08032 W/m/K	–
3132 kPa	0.08032 W/m/K	–
